Format in all cases: in vivo, rat
The test system of data set [1] is spontaneously hypertensive rats (SHR). Nature of the data set: Individual and combined effects of MANP and Fs on BP and aldosterone in spontaneously hypertensive rats (Example 1). The note with it: for Mean arterial pressure (MAP) Δ: 60 minute period, mean±SD.
In data set [2] the test system is SHR. Briefly: Acute study in SHR, systemic hemodynamics (arterial BP). The note with it: all three doses of Fs (1, 5, 10 mg/kg IV bolus). Here is the method:
(§1) Acute Study Protocol in SHR: The cardiorenal and neurohumoral actions of MANP, Fs, or their combination were investigated in the genetic model of hypertension in male SHR (n=6 in each group). Rats were anesthetized in an induction chamber with inhaled Isoflurane 2.5%. During this brief state of anesthesia, the rats were administered IP Inactin 100 mg/kg to maintain anesthesia. An oxygen mask was used until the end of the experiment. The carotid artery was cannulated for arterial pressure measurements and the right jugular vein was cannulated for infusions. Pressures were recorded and analyzed digitally (Sonometrics, London, Ontario, Canada). Via a small incision in the lower abdominal wall, the bladder was cannulated for urine sampling.
Immediately after preparation, a 30-minute equilibration period was started with intravenous inulin infusion. […] After baseline measurements, rats were randomly assigned to ten groups: • Group 1—treated with MANP100; • Group 2—treated with MANP300; • Group 3—treated with MANP600; • Group 4—treated with Fs1; • Group 5—treated with Fs5; • Group 6—treated with Fs10; • Group 7—treated with MANP300+Fs5; • Group 8—treated with MANP300+Fs10; • Group 9—treated with MANP600+Fs10; and • Group 10—treated with inulin, normal saline, or inulin and normal saline. […]
(§2) Statistical Analysis: Values are expressed as mean±standard error of mean (SEM). […]

The subject of data set [3] is SHR. Nature of the data set: Acute study in SHR, neurohumoral analysis (plasma and urinary cGMP, aldosterone). The settings on record: Fs5 and Fs10, 60 minutes. Here is the method: Rats were anesthetized in an induction chamber with inhaled Isoflurane 2.5%. During this brief state of anesthesia, the rats were administered IP Inactin 100 mg/kg to maintain anesthesia. An oxygen mask was used until the end of the experiment. The carotid artery was cannulated for arterial pressure measurements and the right jugular vein was cannulated for infusions. Pressures were recorded and analyzed digitally (Sonometrics, London, Ontario, Canada). Via a small incision in the lower abdominal wall, the bladder was cannulated for urine sampling. Immediately after preparation, a 30-minute equilibration period was started with intravenous inulin infusion. […] Plasma and urinary cGMP (Enzo Life Sciences) and aldosterone (DRG International, Springfield, NJ) were determined by ELISA. Inulin concentrations were measured using the anthrone method, as described elsewhere (Fuhr et al. (1955) Klin. Wochenschr 33:729-730). GFR was calculated by inulin clearance. Electrolytes were measured by flame photometry (IL943, Instrumentation Laboratory, UK). All measurements were performed according to manufacturer instructions.

The test system of data set [4] is SHR. Nature of the data set: Acute study in SHR, renal function (GFR, urinary sodium and water excretion). The note with it: Fs groups, 60 minutes, inulin clearance. Here is the method: as §1, with “Via a small incision in the lower abdominal wall, the bladder was cannulated for urine sampling.” left out
Neurohormonal and Electrolyte Analysis: Plasma ANP was measured by radioimmunoassay (Phoenix Pharmaceuticals) as an assessment of MANP, as the ANP RIA fully detects MANP (Burnett et al. (1986) Science 231(4742):1145-1147). Plasma and urinary cGMP (Enzo Life Sciences) and aldosterone (DRG International, Springfield, NJ) were determined by ELISA. Inulin concentrations were measured using the anthrone method, as described elsewhere (Fuhr et al. (1955) Klin. Wochenschr 33:729-730). GFR was calculated by inulin clearance. Electrolytes were measured by flame photometry (IL943, Instrumentation Laboratory, UK). […]
as §2

With `NS(=O)(=O)c1cc(C(=O)O)c(NCc2ccco2)cc1Cl` [Fs, furosemide], the “Mean arterial pressure (MAP) Δ” value in data set [1] (Fs1: 1 mg/kg Fs single bolus) is listed as −40±9 mmHg; in data set [1] (Fs5: 5 mg/kg Fs single bolus), −55±8 mmHg; in data set [1] (Fs10: 10 mg/kg Fs single bolus) it was −63±11 mmHg. Moreover, the urinary flow entry in data set [1] (Fs, MANP and Fs+MANP groups, p<0.05) is “enhanced”. Further, the “BP compared with controls” value in the data set with SHR [2] is listed as “significantly reduced”. Further, in the data set with SHR [3], the “levels of aldosterone compared to the control, MANP100 and MANP300 groups” value is “significantly higher”. Also, the “GFR compared to the no treatment control groups” value in the data set with SHR [4] is “significantly lower”.

The values are drawn from patent US20250381249A1, “COMBINATION TREATMENT FOR RESISTANT HYPERTENSION” (Mayo Foundation for Medical Education and Research, priority 2018, published 2025).
